Data from publication PMC9545129 (Chemmedchem, 2022).

Tests used:
LAT1 (SLC7A5) = LAT1 (SLC7A5) (Homo sapiens, UniProt Q01650); test: [3H]-L-leucine efflux assay in preloaded HT-29 cells; format: cell-based; settings: concentration not stated
LAT1 = settings: cited from earlier work

LAT1 (SLC7A5), sequence (Q01650 whole entry): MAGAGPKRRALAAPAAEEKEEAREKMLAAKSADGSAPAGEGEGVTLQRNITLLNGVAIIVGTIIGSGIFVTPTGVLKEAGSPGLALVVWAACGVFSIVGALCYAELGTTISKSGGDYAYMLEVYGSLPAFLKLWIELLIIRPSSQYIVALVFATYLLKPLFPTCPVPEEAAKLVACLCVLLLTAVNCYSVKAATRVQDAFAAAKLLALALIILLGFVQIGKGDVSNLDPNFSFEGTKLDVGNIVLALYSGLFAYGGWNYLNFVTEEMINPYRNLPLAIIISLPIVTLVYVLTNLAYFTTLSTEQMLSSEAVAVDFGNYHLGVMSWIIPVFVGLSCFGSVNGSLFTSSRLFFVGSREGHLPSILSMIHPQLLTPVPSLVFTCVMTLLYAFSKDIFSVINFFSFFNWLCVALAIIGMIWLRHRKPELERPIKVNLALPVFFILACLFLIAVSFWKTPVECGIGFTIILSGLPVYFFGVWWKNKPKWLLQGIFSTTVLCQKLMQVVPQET
LAT1 (SLC7A5), sequence (P08195 102-630 partner): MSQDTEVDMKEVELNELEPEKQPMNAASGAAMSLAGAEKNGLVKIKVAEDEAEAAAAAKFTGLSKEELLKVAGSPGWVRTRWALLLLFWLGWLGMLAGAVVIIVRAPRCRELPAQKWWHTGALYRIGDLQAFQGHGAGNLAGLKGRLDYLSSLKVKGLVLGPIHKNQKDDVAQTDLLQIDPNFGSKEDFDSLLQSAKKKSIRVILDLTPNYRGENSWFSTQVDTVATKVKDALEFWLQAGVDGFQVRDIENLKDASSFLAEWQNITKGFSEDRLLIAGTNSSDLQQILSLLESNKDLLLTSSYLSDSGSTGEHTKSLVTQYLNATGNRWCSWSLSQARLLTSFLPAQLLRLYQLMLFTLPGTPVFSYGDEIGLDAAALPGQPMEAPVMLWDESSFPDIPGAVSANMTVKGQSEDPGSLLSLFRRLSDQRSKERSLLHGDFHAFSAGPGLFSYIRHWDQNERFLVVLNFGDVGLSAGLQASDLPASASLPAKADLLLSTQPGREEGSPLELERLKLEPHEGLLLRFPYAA

| SMILES | [3H]-L-leucine efflux from preloaded HT-29 cells / substrate for LAT1-mediated transport (LAT1 (SLC7A5)) | LAT1 substrate properties (LAT1) |
| --- | --- | --- |
| N[C@@H](Cc1c[nH]c2ccccc12)C(=O)O [L‐Trp, L‐tryptophan] | elicited clear [^3H]‐L‐leucine efflux | – |
| N[C@@H](Cc1c[nH]c2ccc(OCCF)cc12)C(=O)O [5‐(2‐fluoroethoxy)‐L‐tryptophan] | – | exhibit LAT1 substrate properties |
